In ChEMBL document CHEMBL4680138, “A 18β-glycyrrhetinic acid conjugate with Vorinostat degrades HDAC3 and HDAC6 with improved antitumor effects” (Eur J Med Chem, 2020):
Calls of active or inactive are those of the source. The calls are words filed in the database; no cut-off is given here.

Columns and labels:
Histone deacetylase 1 = Histone deacetylase 1 (Homo sapiens, UniProt Q13547); assay: Inhibition of recombinant human C-terminal FLAG/His-tagged HDAC1 (1 to 482 residues) expressed in Sf9 insect cells using Boc-Lys (Ac)-AMC as substrate preincubated for 15 mins followed by substrate addition and measured after 60 mins by fluorescence based assay
Histone deacetylase 1, sequence (Q13547 whole entry, the tested form may be a part): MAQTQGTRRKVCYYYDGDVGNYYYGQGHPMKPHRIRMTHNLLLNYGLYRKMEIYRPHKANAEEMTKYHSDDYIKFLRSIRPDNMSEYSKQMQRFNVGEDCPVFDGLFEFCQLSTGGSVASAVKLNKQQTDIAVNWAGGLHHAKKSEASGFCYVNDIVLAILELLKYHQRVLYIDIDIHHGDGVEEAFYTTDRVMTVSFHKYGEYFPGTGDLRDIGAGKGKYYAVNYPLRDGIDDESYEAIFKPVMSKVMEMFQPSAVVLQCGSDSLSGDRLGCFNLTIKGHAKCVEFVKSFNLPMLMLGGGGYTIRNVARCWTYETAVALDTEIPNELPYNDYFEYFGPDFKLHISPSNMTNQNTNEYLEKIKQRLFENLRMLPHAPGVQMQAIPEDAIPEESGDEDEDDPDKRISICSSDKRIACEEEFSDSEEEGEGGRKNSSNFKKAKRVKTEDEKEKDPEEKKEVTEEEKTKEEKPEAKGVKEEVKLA

HL-60 [1] = assay: Induction of apoptosis in human HL-60 cells assessed as late apoptotic cells at 0.5 uM measured after 24 hrs by Annexin-V/FITC and propidium iodide staining based flow cytometry (reference value: 7.24 %); type: functional
HL-60 [2] = assay: Induction of apoptosis in human HL-60 cells assessed as late apoptotic cells at 2 uM measured after 24 hrs by Annexin-V/FITC and propidium iodide staining based flow cytometry (reference value: 7.24 %); type: functional
[3] = AUC (0 to infinity) in Sprague-Dawley rat at 5 mg/kg, iv measured up to 24 hrs by LC-MS/MS analysis; type: ADME, organism-based; set-up: route intravenous, dose 5 mg/kg, time <=24; details: in vivo
HL-60 [4] = assay: Upregulation of acetylated H3 level in human HL-60 cells at 2 uM measured after 12 hrs by Western blot analysis; type: functional, cell-based
HL-60 [5] = assay: Induction of apoptosis in human HL-60 cells assessed as early apoptotic cells at 2 uM measured after 24 hrs by Annexin-V/FITC and propidium iodide staining based flow cytometry (reference value: 2.46 %); type: functional
HL-60 [6] = assay: Induction of apoptosis in human HL-60 cells assessed as necrotic cells at 0.5 uM measured after 24 hrs by Annexin-V/FITC and propidium iodide staining based flow cytometry (reference value: 1.01 %); type: functional
[7] = molecular target: T1, Protein deacetylase HDAC6 (Homo sapiens, UniProt Q9UBN7); assay: Inhibition of recombinant C-terminal FLAG-tagged full length human HDAC6 expressed in baculovirus infected Sf9 cells using Boc-Lys(Ac)-AMC as substrate preincubated for 15 mins followed by substrate addition and measured after 60 mins by fluorescence based assay
T1 sequence (Q9UBN7 whole entry): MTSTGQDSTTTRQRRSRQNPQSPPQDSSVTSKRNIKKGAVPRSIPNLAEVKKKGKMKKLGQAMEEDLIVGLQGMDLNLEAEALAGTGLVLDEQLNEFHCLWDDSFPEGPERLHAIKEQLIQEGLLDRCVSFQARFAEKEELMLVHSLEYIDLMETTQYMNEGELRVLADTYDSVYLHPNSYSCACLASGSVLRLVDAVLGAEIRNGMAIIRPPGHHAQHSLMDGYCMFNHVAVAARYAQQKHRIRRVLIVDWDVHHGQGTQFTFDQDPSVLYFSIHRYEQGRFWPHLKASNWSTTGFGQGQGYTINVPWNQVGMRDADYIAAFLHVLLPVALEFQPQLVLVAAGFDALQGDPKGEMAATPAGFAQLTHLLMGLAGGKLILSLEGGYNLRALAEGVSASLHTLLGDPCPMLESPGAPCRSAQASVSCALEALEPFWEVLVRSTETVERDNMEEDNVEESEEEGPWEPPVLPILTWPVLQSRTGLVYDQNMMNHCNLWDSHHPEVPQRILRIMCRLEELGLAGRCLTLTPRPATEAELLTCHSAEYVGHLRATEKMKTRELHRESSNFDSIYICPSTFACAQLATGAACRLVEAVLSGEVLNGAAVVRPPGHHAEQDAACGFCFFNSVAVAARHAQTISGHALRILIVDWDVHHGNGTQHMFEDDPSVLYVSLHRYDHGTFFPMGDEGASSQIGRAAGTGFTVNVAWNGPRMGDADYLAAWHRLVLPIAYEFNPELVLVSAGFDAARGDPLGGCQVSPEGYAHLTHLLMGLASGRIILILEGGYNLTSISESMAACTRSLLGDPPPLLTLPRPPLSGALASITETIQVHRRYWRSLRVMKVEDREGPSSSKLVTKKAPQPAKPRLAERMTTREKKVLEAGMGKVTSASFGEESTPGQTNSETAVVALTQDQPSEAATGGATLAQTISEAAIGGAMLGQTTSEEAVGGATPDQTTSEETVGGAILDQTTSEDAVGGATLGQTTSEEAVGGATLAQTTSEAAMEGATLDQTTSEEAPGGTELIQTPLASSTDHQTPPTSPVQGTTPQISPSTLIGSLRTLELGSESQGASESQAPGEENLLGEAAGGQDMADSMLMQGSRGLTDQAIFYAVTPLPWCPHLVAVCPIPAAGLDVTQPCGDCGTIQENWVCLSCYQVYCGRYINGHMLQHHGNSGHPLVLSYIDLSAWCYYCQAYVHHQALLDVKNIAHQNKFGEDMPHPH

HL-60 [8] = assay: Induction of apoptosis in human HL-60 cells assessed as early apoptotic cells at 1 uM measured after 24 hrs by Annexin-V/FITC and propidium iodide staining based flow cytometry (reference value: 2.46 %); type: functional
HL-60 [9] = assay: Induction of apoptosis in human HL-60 cells assessed as necrotic cells at 2 uM measured after 24 hrs by Annexin-V/FITC and propidium iodide staining based flow cytometry (reference value: 1.01 %); type: functional
HL-60 [10] = assay: Induction of apoptosis in human HL-60 cells assessed as increase in accumulation at sub-G1 phase at 2 uM after 24 hrs by propidium iodide staining based flow cytometry (reference value: 2.72 %); type: functional
HL-60 [11] = assay: Antiproliferative activity against human HL-60 cells assessed as cell growth inhibition after 72 hrs by trypan blue staining based cell counting assay; type: functional; details: HL-60, 72 h
PC-3 = assay: Cytotoxicity against human PC-3 cells assessed as reduction in cell viability after 96 hrs by MTT assay; type: functional, cell-based; details: PC-3, 96 h
HL-60 [12] = assay: Induction of apoptosis in human HL-60 cells assessed as early apoptotic cells at 0.5 uM measured after 24 hrs by Annexin-V/FITC and propidium iodide staining based flow cytometry (reference value: 2.46 %); type: functional
[13] = Cmax in Sprague-Dawley rat at 5 mg/kg, iv measured up to 24 hrs by LC-MS/MS analysis; type: ADME, organism-based; set-up: route intravenous, dose 5 mg/kg, time <=24; details: in vivo
[14] = molecular target: Histone deacetylase 3/Nuclear receptor corepressor 2 (HDAC3/NCoR2) (Homo sapiens, UniProt O15379); assay: Inhibition of C-terminal His-tagged recombinant human HDAC3 (1 to 428 residues)/N-terminal GST-tagged recombinant human NCoR2 (395 to 489 residues) co-expressed in baculovirus infected Sf9 cells using Boc-Lys(Ac)-AMC as substrate preincubated for 15 mins followed by substrate addition and measured after 60 mins by fluorescence based assay
Histone deacetylase 3/Nuclear receptor corepressor 2 (HDAC3/NCoR2), sequence (O15379 whole entry, the tested form may be a part): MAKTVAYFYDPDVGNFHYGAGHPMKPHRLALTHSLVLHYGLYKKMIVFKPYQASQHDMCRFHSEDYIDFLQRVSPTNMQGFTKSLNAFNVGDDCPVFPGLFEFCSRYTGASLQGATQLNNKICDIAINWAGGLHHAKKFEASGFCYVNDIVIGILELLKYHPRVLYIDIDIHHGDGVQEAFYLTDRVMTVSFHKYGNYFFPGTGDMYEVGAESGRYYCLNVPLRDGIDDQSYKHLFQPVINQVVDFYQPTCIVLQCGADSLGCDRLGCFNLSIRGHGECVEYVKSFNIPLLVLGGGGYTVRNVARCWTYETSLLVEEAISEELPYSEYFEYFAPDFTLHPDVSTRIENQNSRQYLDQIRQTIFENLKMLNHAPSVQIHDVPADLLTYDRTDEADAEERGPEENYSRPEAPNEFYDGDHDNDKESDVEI
Histone deacetylase 3/Nuclear receptor corepressor 2 (HDAC3/NCoR2), sequence (Q9Y618 whole entry, further chain, the tested form may be a part): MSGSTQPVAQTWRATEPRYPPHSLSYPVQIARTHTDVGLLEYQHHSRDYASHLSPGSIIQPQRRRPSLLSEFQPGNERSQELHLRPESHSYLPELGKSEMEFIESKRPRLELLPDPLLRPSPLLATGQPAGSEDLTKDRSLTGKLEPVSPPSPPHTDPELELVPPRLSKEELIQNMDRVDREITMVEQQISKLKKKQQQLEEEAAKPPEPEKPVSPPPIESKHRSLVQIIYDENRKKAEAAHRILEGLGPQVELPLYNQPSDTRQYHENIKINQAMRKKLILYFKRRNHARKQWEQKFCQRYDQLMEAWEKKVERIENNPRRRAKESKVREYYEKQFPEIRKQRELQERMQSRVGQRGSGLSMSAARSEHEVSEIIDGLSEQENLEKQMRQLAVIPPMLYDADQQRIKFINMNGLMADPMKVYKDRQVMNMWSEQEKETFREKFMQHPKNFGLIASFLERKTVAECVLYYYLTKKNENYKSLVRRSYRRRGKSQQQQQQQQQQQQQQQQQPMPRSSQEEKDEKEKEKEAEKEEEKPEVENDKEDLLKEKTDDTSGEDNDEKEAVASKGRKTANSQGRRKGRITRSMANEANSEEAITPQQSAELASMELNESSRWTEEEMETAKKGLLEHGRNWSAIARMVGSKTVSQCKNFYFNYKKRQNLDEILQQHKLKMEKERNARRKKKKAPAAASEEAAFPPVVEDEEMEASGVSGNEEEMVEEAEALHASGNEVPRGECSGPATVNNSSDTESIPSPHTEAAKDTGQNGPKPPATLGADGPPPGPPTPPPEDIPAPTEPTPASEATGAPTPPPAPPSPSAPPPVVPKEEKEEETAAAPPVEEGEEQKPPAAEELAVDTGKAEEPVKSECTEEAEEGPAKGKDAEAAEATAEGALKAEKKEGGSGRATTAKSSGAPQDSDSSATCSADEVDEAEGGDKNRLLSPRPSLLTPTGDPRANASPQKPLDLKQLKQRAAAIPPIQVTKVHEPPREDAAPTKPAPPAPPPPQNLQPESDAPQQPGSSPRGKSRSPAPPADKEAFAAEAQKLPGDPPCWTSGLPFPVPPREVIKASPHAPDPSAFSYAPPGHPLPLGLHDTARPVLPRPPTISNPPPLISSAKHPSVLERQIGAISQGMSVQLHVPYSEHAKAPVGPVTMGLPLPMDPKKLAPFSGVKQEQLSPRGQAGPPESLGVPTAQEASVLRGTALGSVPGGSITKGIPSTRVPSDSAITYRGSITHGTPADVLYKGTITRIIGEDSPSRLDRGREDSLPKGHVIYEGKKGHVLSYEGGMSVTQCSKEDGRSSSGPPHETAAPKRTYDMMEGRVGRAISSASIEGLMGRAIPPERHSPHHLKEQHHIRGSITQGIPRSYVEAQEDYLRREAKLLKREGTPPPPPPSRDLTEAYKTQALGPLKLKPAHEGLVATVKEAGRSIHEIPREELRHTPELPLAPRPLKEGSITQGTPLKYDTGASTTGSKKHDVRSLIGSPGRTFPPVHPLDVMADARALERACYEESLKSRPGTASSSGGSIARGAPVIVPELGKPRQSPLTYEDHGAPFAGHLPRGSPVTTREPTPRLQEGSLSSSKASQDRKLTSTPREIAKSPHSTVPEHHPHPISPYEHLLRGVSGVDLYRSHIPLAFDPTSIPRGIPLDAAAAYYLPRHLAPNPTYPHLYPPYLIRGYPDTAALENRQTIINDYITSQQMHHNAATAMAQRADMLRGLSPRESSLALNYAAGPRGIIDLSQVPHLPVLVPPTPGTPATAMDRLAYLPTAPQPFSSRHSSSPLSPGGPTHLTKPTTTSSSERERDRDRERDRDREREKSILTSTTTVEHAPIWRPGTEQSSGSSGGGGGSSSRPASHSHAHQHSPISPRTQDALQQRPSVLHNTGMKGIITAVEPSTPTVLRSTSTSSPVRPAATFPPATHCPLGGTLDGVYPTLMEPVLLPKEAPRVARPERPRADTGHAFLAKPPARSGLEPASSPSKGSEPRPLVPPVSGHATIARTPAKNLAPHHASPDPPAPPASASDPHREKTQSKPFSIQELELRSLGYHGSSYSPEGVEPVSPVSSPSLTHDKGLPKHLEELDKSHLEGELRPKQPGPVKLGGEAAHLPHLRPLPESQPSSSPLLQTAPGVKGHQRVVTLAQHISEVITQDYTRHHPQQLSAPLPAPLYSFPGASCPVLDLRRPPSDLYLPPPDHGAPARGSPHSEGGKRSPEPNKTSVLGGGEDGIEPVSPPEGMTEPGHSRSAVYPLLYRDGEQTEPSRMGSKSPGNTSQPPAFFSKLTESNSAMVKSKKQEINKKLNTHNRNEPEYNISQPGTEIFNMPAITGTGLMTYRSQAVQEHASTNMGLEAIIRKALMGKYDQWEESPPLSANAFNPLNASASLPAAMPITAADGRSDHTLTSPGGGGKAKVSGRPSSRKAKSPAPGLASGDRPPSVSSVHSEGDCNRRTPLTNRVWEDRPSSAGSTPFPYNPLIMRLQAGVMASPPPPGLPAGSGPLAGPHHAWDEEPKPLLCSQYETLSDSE

HL-60 [15] = assay: Induction of apoptosis in human HL-60 cells assessed as live cells at 0.5 uM measured after 24 hrs by Annexin-V/FITC and propidium iodide staining based flow cytometry (reference value: 89.29 %); type: functional
HL-60 [16] = assay: Upregulation of acetylated alpha-tubulin level in human HL-60 cells at 2 uM measured after 12 hrs by Western blot analysis; type: functional, cell-based
HL-60 [17] = assay: Induction of apoptosis in human HL-60 cells assessed as live cells at 1 uM measured after 24 hrs by Annexin-V/FITC and propidium iodide staining based flow cytometry (reference value: 89.29 %); type: functional
HL-60 [18] = assay: Induction of apoptosis in human HL-60 cells assessed as necrotic cells at 1 uM measured after 24 hrs by Annexin-V/FITC and propidium iodide staining based flow cytometry (reference value: 1.01 %); type: functional
Histone deacetylase 2 = Histone deacetylase 2 (Homo sapiens, UniProt Q92769); assay: Inhibition of recombinant human HDAC2 expressed in baculovirus infected Sf9 cells using Boc-Lys(Ac)-AMC as substrate preincubated for 15 mins followed by substrate addition and measured after 60 mins by fluorescence based assay; type: cell-based
Histone deacetylase 2, sequence (Q92769 whole entry): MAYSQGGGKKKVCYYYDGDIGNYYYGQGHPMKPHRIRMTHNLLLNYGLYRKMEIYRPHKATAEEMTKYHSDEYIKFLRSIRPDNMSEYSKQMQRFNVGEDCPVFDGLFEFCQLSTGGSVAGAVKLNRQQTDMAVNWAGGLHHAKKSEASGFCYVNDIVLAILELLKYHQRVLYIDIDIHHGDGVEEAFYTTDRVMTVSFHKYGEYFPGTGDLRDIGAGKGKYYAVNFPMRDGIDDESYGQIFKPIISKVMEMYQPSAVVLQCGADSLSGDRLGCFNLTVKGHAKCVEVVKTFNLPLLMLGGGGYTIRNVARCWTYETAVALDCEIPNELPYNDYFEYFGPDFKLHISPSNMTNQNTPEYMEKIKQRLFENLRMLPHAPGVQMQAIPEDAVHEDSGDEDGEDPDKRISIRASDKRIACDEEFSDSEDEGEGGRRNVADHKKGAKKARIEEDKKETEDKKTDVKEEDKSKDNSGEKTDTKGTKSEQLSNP

HL-60 [19] = assay: Induction of apoptosis in human HL-60 cells assessed as increase in accumulation at sub-G1 phase at 1 uM after 24 hrs by propidium iodide staining based flow cytometry (reference value: 2.72 %); type: functional
HL-60 [20] = assay: Induction of apoptosis in human HL-60 cells assessed as live cells at 2 uM measured after 24 hrs by Annexin-V/FITC and propidium iodide staining based flow cytometry (reference value: 89.29 %); type: functional
[21] = Half life in Sprague-Dawley rat at 5 mg/kg, iv measured up to 24 hrs by LC-MS/MS analysis; type: ADME, organism-based; details: in vivo
HL-60 [22] = assay: Induction of apoptosis in human HL-60 cells assessed as late apoptotic cells at 1 uM measured after 24 hrs by Annexin-V/FITC and propidium iodide staining based flow cytometry (reference value: 7.24 %); type: functional
HL-60 [23] = assay: Upregulation of PARP cleavage in human HL-60 cells at 2 uM measured after 12 hrs by Western blot analysis; type: functional, cell-based
HL-60 [24] = assay: Induction of apoptosis in human HL-60 cells assessed as increase in accumulation at sub-G1 phase at 0.5 uM after 24 hrs by propidium iodide staining based flow cytometry (reference value: 2.72 %); type: functional

CC1(C)C(=O)C(C#N)=C[C@]2(C)[C@H]3C(=O)C=C4[C@@H]5C[C@@](C)(C(=O)N6CCN(c7ccc(NC(=O)CCCCCCC(=O)NO)cc7)CC6)CC[C@]5(C)CC[C@@]4(C)[C@]3(C)CC[C@@H]12
IC50 (Histone deacetylase 1): 2510 nM
Activity (HL-60 [1]): 24.55%
Activity (HL-60 [2]): 65.55%
AUC(0-inf) [3]: 3780 ng·h/mL
Activity (HL-60 [4]): Active
Activity (HL-60 [5]): 2.51%
Activity (HL-60 [6]): 3.91%
IC50 [7]: 368 nM
Activity (HL-60 [8]): 1.17%
Activity (HL-60 [9]): 8.05%
Activity (HL-60 [10]): 76.29%
IC50 (HL-60 [11]): 370 nM
IC50 (PC-3): 470 nM
Activity (HL-60 [12]): 2.92%
Cmax [13]: 10800 ng/mL
IC50 [14]: 635 nM
Activity (HL-60 [15]): 68.63%
Activity (HL-60 [16]): Active
Activity (HL-60 [17]): 37.66%
Activity (HL-60 [18]): 20.73%
IC50 (Histone deacetylase 2): 4830 nM
Activity (HL-60 [19]): 58.14%
Activity (HL-60 [20]): 23.9%
half-life [21]: 16.8 h
Activity (HL-60 [22]): 40.45%
Activity (HL-60 [23]): Active
Activity (HL-60 [24]): 27.28%
